Like-named read-outs stand apart in the source and are kept apart here.

The target in the assay is T1, full-length beta-Catenin (Uniprot ID P35222) (Homo sapiens, UniProt P35222).
T1 construct: 10 nM full-length beta-Catenin (Uniprot ID P35222)
T1 sequence (P35222 1-781): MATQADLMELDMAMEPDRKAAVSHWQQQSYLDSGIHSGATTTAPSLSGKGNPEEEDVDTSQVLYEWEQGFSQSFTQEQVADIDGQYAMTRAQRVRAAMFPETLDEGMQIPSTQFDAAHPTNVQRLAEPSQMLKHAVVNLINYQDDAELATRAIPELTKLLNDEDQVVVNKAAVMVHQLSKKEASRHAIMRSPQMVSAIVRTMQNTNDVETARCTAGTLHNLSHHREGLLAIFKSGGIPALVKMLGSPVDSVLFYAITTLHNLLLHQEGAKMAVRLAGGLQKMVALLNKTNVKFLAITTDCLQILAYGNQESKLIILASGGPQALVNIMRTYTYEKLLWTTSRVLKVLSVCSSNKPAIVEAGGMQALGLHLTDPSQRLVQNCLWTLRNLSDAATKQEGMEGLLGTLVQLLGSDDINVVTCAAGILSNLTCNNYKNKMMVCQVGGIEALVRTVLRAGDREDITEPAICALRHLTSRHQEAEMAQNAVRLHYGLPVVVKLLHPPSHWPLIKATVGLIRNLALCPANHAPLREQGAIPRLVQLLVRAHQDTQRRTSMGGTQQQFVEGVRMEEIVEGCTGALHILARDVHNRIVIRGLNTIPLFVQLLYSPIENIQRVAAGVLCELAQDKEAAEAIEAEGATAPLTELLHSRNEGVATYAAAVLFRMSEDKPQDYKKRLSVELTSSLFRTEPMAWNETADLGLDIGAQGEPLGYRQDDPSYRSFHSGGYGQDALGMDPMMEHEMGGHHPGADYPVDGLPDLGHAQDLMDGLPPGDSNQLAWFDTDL
The assay is described as follows: Fluorescence polarization IC50 (beta-catenin / 5FAM-TCF4 10-53 competition). The assay is classed as binding. The note with it: fluorescence polarization.

Take `CC(=O)N1CCC[C@]12CC=CCCCC1(CCCC=CCCCOC(=O)N3CC[C@@](C(=O)N[C@@H](Cc4ccsc4)C(=O)N[C@@H](Cc4csc5ccccc45)C(=O)N[C@@H](CCC(N)=O)C(N)=O)(C3)NC(=O)[C@H](CC(C)C)NC(=O)[C@H](Cc3ccccc3)NC(=O)[C@H](C)NC(=O)[C@H](C)NC(=O)[C@H](CN(CC(=O)O)C(=O)c3ccc(CN4CCOCC4)cc3)NC(=O)[C@H](CC(=O)O)NC1=O)NC(=O)[C@H](CC(C)(C)C)NC(=O)[C@H](CC(=O)O)NC2=O` (stereo partly drawn) [I-2238, Ac-PL3-Asp-Npg-B5-Asp-[MeMorphBz]GA-Ala-Ala-Phe-Leu-PyrS2-3Thi-BztA-Gln-NH2]: the IC50 (read-out: beta-Catenin FP IC50) is 11 nM.

For `CC(=O)N1CCC[C@]12CC=CCCCC1(CCCC=CCCCOC(=O)N3CC[C@@](C(=O)N[C@@H](Cc4ccsc4)C(=O)N[C@@H](Cc4csc5ccccc45)C(=O)N[C@@H](CCC(N)=O)C(N)=O)(C3)NC(=O)[C@H](CC(C)C)NC(=O)[C@H](Cc3ccccc3)NC(=O)[C@H](C)NC(=O)[C@H](C)NC(=O)[C@H](CCN(CC(=O)O)C(=O)CCN(C)C)NC(=O)[C@H](CC(=O)O)NC1=O)NC(=O)[C@H](CC(C)(C)C)NC(=O)[C@H](CC(=O)O)NC2=O` (stereo partly drawn) [I-2244, Ac-PL3-Asp-Npg-B5-Asp-[Me2NPr]GAbu-Ala-Ala-Phe-Leu-PyrS2-3Thi-BztA-Gln-NH2], the IC50 (read-out: beta-Catenin FP IC50) worked out at 16 nM.

Consider `CC(=O)N1CCC[C@]12CC=CCCCC1(CCCC=CCCCOC(=O)N3CC[C@@](C(=O)N[C@@H](Cc4ccsc4)C(=O)N[C@@H](Cc4csc5ccccc45)C(=O)N[C@@H](CCC(N)=O)C(N)=O)(C3)NC(=O)[C@H](CC(C)C)NC(=O)[C@H](Cc3ccccc3)NC(=O)[C@H](C)NC(=O)[C@H](C)NC(=O)[C@H](CCN(CC(=O)O)C(=O)CN3CCOCC3)NC(=O)[C@H](CC(=O)O)NC1=O)NC(=O)[C@H](CC(C)(C)C)NC(=O)[C@H](CC(=O)O)NC2=O` (stereo partly drawn) [I-2249, Ac-PL3-Asp-Npg-B5-Asp-[MorphAc]GAbu-Ala-Ala-Phe-Leu-PyrS2-3Thi-BztA-Gln-NH2], for which the IC50 (read-out: beta-Catenin FP IC50) was 14 nM.

Consider `CC(=O)N1CCC[C@]12CC=CCCCC1(CCCC=CCCCOC(=O)N3CC[C@@](C(=O)N[C@@H](Cc4ccsc4)C(=O)N[C@@H](Cc4csc5ccccc45)C(=O)N[C@@H](CCC(N)=O)C(N)=O)(C3)NC(=O)[C@H](CC(C)C)NC(=O)[C@H](Cc3ccccc3)NC(=O)[C@H](C)NC(=O)[C@H](C)NC(=O)[C@H](CCN(CC(=O)O)C(=O)CN3CCN(C)CC3)NC(=O)[C@H](CC(=O)O)NC1=O)NC(=O)[C@H](CC(C)(C)C)NC(=O)[C@H](CC(=O)O)NC2=O` (stereo partly drawn) [I-2250, Ac-PL3-Asp-Npg-B5-Asp-[MePipAc]GAbu-Ala-Ala-Phe-Leu-PyrS2-3Thi-BztA-Gln-NH2], for which, for the setting “read-out: beta-Catenin FP IC50”, the IC50 came out at 12 nM.

For the setting “beta-Catenin FP IC50 (nM)”, `CC(C)C[C@@H]1NC(=O)[C@H](Cc2ccccc2)NC(=O)[C@H](C)NC(=O)[C@H](C)NC(=O)[C@H](Cc2cccc(C(=O)O)c2)NC(=O)[C@H](CC(=O)O)NC(=O)C2(CCCC=CCCCOC(=O)N3CC[C@@](C(=O)N[C@@H](Cc4ccccc4Cl)C(=O)N[C@@H](Cc4csc5ccccc45)C(=O)N[C@@H](C)C(N)=O)(C3)NC1=O)CCCC=CC[C@]1(CCCN1C(=O)CCl)C(=O)N[C@@H](CC(=O)O)C(=O)N[C@@H](CC(C)(C)C)C(=O)N2` (stereo partly drawn) [I-2253, ClAc-PL3-Asp-Npg-B5-Asp-3COOHF-Ala-Ala-Phe-Leu-PyrS2-2C1F-BztA-Ala-NH2] registered an IC50 of 189 nM.

Turning to `CC(=O)N1CCC[C@]12CC=CCCCC1(CCCC=CCCCOC(=O)N3CC[C@@](C(=O)N[C@@H](Cc4cccc(-c5ccccc5)c4)C(=O)N[C@@H](Cc4ccsc4)C(=O)N[C@@H](CCC(N)=O)C(N)=O)(C3)NC(=O)[C@H](CC(C)C)NC(=O)[C@H](Cc3ccccc3)NC(=O)[C@H](C)NC(=O)[C@H](C)NC(=O)[C@H](Cc3cccc(C(=O)O)c3)NC(=O)[C@H](CC(=O)O)NC1=O)NC(=O)[C@H](CC(C)(C)C)NC(=O)[C@H](CC(=O)O)NC2=O` (stereo partly drawn) [I-2254, Ac-PL3-Asp-Npg-B5-Asp-3COOHF-Ala-Ala-Phe-Leu-PyrS2-[Ph]3SF-3Thi-Gln-NH2], the IC50 (read-out: beta-Catenin FP IC50) is 5790 nM.

As for `CC(=O)N1CCC[C@]12CC=CCCCC1(CCCC=CCCCOC(=O)N3CC[C@@](C(=O)N[C@@H](Cc4cccc(-c5ccccc5)c4)C(=O)N[C@@H](CC4CCC4)C(=O)N[C@@H](CCC(N)=O)C(N)=O)(C3)NC(=O)[C@H](CC(C)C)NC(=O)[C@H](Cc3ccccc3)NC(=O)[C@H](C)NC(=O)[C@H](C)NC(=O)[C@H](Cc3cccc(C(=O)O)c3)NC(=O)[C@H](CC(=O)O)NC1=O)NC(=O)[C@H](CC(C)(C)C)NC(=O)[C@H](CC(=O)O)NC2=O` (stereo partly drawn) [I-2255, Ac-PL3-Asp-Npg-B5-Asp-3COOHF-Ala-Ala-Phe-Leu-PyrS2-[Ph]3SF-Cba-Gln-NH2], the IC50 (read-out: beta-Catenin FP IC50) turned out to be 7650 nM.

As for `CC(=O)N1CCC[C@]12CC=CCCCC1(CCCC=CCCCOC(=O)N3CC[C@@](C(=O)N[C@@H](Cc4cccc(-c5ccccc5)c4)C(=O)N[C@@H](Cc4ccccc4C(F)(F)F)C(=O)N[C@@H](CCC(N)=O)C(N)=O)(C3)NC(=O)[C@H](CC(C)C)NC(=O)[C@H](Cc3ccccc3)NC(=O)[C@H](C)NC(=O)[C@H](C)NC(=O)[C@H](Cc3cccc(C(=O)O)c3)NC(=O)[C@H](CC(=O)O)NC1=O)NC(=O)[C@H](CC(C)(C)C)NC(=O)[C@H](CC(=O)O)NC2=O` (stereo partly drawn) [I-2256, Ac-PL3-Asp-Npg-B5-Asp-3COOHF-Ala-Ala-Phe-Leu-PyrS2-[Ph]3SF-2F3MeF-Gln-NH2], the IC50 (read-out: beta-Catenin FP IC50) came out at 8410 nM.

With `CC(=O)N1CCC[C@]12CC=CCCCC1(CCCC=CCCCOC(=O)N3CC[C@@](C(=O)N[C@@H](Cc4ccsc4)C(=O)N[C@@H](Cc4csc5ccccc45)C(=O)N[C@@H](C)C(N)=O)(C3)NC(=O)[C@H](CC(C)C)NC(=O)[C@H](Cc3ccccc3)NC(=O)[C@H](C)NC(=O)[C@H](C)NC(=O)[C@H](Cc3cccc(C(=O)O)c3)NC(=O)[C@H](CC(=O)O)NC1=O)NC(=O)[C@H](CC(C)(C)C)NC(=O)[C@H]([C@@H](O)C(=O)O)NC2=O` (stereo partly drawn) [I-2258, Ac-PL3-RbOHAsp-Npg-B5-Asp-3COOHF-Ala-Ala-Phe-Leu-PyrS2-3Thi-BztA-Ala-NH2], the half-inhibitory concentration (IC50) (read-out: beta-Catenin FP IC50) was 272 nM.

For the compound `CC(=O)N1CC2CC1C(=O)N[C@@H](CC(=O)O)C(=O)N[C@@H](CC(C)(C)C)C(=O)NC1(CCCC=CCCCOC(=O)N3CC[C@@](C(=O)N[C@@H](Cc4ccsc4)C(=O)N[C@@H](Cc4csc5ccccc45)C(=O)N[C@@H](CCC(N)=O)C(N)=O)(C3)NC(=O)[C@H](CC(C)C)NC(=O)[C@H](Cc3ccccc3)NC(=O)[C@H](C)NC(=O)[C@H](C)NC(=O)[C@H](CN(CC(=O)O)CC(F)(F)F)NC(=O)[C@H](CC(=O)O)NC1=O)CCCC=CCCC(=O)O2` (stereo partly drawn) [I-2264, Ac-HypEs5-Asp-Npg-B5-Asp-TfeGA-Ala-Ala-Phe-Leu-PyrS2-3Thi-BztA-Gln-NH2], the IC50 (read-out: beta-Catenin FP IC50) turned out to be 45 nM.

`CC(C)C[C@@H]1NC(=O)[C@H](Cc2ccccc2)NC(=O)[C@H](C)NC(=O)[C@H](C)NC(=O)[C@H](CN(CC(=O)O)CC(F)(F)F)NC(=O)[C@H](CC(=O)O)NC(=O)C2(CCCC=CCCCOC(=O)N3CC[C@@](C(=O)N[C@@H](Cc4ccsc4)C(=O)N[C@@H](Cc4csc5ccccc45)C(=O)N[C@@H](CCC(N)=O)C(N)=O)(C3)NC1=O)CCCC=CCS(=O)(=O)N1CCC[C@@H]1C(=O)N[C@@H](CC(=O)O)C(=O)N[C@@H](CC(C)(C)C)C(=O)N2` (stereo partly drawn) [I-2266, ProSAm3-Asp-Npg-B5-Asp-TfeGA-Ala-Ala-Phe-Leu-PyrS2-3Thi-BztA-Gln-NH2]: under “read-out: beta-Catenin FP IC50”, the IC50 was found to be 266 nM.

As for `CC(C)C[C@@H]1NC(=O)[C@H](Cc2ccccc2)NC(=O)[C@H](C)NC(=O)[C@H](C)NC(=O)[C@H](CN(CC(=O)O)CC(F)(F)F)NC(=O)[C@H](CC(=O)O)NC(=O)C2(CCCCCCCCOC(=O)N3CC[C@@](C(=O)N[C@@H](Cc4ccsc4)C(=O)N[C@@H](Cc4csc5ccccc45)C(=O)N[C@@H](CCC(N)=O)C(N)=O)(C3)NC1=O)CCCCCCS(=O)(=O)N1CCC[C@@H]1C(=O)N[C@@H](CC(=O)O)C(=O)N[C@@H](CC(C)(C)C)C(=O)N2` (stereo partly drawn) [I-2267, ProSAm3-Asp-Npg-B5-Asp-TfeGA-Ala-Ala-Phe-Leu-PyrS2-3Thi-BztA-Gln-NH2], the IC50 (read-out: beta-Catenin FP IC50) stood at 499 nM.

Where the note is “beta-Catenin FP IC50 (nM)”, `CC(=O)N1CCC[C@]12CC=CCCCC1(CCCC=CCCCOC(=O)N3CC[C@@](C(=O)N[C@@H](Cc4ccsc4)C(=O)N[C@@H](Cc4csc5ccccc45)C(=O)N[C@@H](CC(N)=O)C(=O)N[C@@H](C)C(=O)N[C@@H](C)C(=O)N[C@@H](C)C(=O)N[C@@H](C)C(=O)N[C@@H](C)C(=O)N[C@@H](C)C(=O)N[C@@H](C)C(=O)N[C@@H](C)C(=O)N[C@@H](C)C(N)=O)(C3)NC(=O)[C@H](CC(C)C)NC(=O)[C@H](Cc3ccccc3)NC(=O)[C@H](C)NC(=O)[C@H](C)NC(=O)[C@H](Cc3cccc(C(=O)O)c3)NC(=O)[C@H](CC(=O)O)NC1=O)NC(=O)[C@H](CC(C)(C)C)NC(=O)[C@H](CC(=O)O)NC2=O` (some centres unmarked) [I-2270] returned an IC50 of 40 nM.

Compound `C[C@@H]1NC(=O)[C@H](C)NC(=O)[C@H](CC(=O)O)NC(=O)[C@H](CC(=O)O)NC(=O)C2(CCCC=CCCCOC(=O)N3CC[C@@](C(=O)N[C@@H](Cc4ccsc4)C(=O)N[C@@H](Cc4csc5ccccc45)C(=O)N[C@@H](Cc4c[nH]cn4)C(N)=O)(C3)NC(=O)[C@H](CCC(N)=O)NC(=O)[C@H](Cc3ccccc3)NC1=O)CCCC=CC[C@]1(CCCN1C(=O)CBr)C(=O)N[C@@H](CC(=O)O)C(=O)N[C@@H](CC(C)(C)C)C(=O)N2` (stereo partly drawn) [I-2285, BrAc-PL3-Asp-Npg-B5-Asp-Asp-Ala-Ala-Phe-Gln-PyrS2-3Thi-BztA-His-NH2] registered an IC50 (beta-Catenin FP IC50 (nM)) of 94 nM.

What is called IC50 is the midpoint of a concentration-inhibition curve.

The values are drawn from patent US20240116985A1, “STAPLED PEPTIDES AND METHODS THEREOF” (priority 2020, published 2024).
